Laboratory results from patent US20050197350A1, “Novel quinoline, tetrahydroquinazoline, and pyrimidine derivatives and methods of treatment related to the use thereof” (TAISHO PHARMACEUTICAL CO., LTD., priority 2003, published 2005).

The molecules below were run on MCH receptors (assay: MCH receptor activity class (method not given)). Conditions: MCH receptor; class by percent of control at 10^-7 M or IC50.
For `CN(C)c1cc(N[C@H]2CC[C@@H](NC(=O)c3ccc(F)c(F)c3)CC2)nc2ccccc12` [compound 33, N-(cis-4-{[4-(dimethylamino)quinolin-2-yl]amino}cyclohexyl)-3,4-difluorobenzamide], the class was 1 (Class 1: The value of percent of control at 10^−7 M was less than 40% or the value of IC50 was less than 50 nM.). For `CN(C)c1cc(N[C@H]2CC[C@@H](NC(=O)c3cc(F)cc(F)c3)CC2)nc2ccccc12` [compound 34, N-(cis-4-{[4-(dimethylamino)quinolin-2-yl]amino}cyclohexyl)-3,5-difluorobenzamide], the class was 2 (Class 2: The value of percent of control at 10^−7 M was from 40% to 60% or the value of IC′50 was from 50 nM to 200 nM.). `COc1ccc(OC)c(CC(=O)N[C@H]2CC[C@@H](Nc3cc(N(C)C)c4ccccc4n3)CC2)c1` [compound 35] was tested, and the class was 3 (Class 3 The value of percent of control at 10^−7 M was more than 60% or the value of IC50 was more than 200 nM.). With `CCSc1ncccc1C(=O)N[C@H]1CC[C@@H](Nc2cc(N(C)C)c3ccccc3n2)CC1` [compound 36] the class was 3 (Class 3 The value of percent of control at 10^−7 M was more than 60% or the value of IC50 was more than 200 nM.). In the case of `CN(C)c1cc(N[C@H]2CC[C@@H](NC(=O)c3ccc(F)cc3)CC2)nc2ccccc12` [compound 37, N-(cis-4-{[4-(dimethylamino)quinolin-2-yl]amino}cyclohexyl)-4-fluorobenzamide], the class is reported as 1 (Class 1: The value of percent of control at 10^−7 M was less than 40% or the value of IC50 was less than 50 nM.). `CN(C)c1cc(N[C@H]2CC[C@@H](NC(=O)c3cc(F)cc(C(F)(F)F)c3)CC2)nc2ccccc12` [compound 38, N-(cis-4-{[4-(dimethylamino)quinolin-2-yl]amino}cyclohexyl)-3-fluoro-5-(trifluoromethyl)benzamide] was tested, and the class was 2 (Class 2: The value of percent of control at 10^−7 M was from 40% to 60% or the value of IC′50 was from 50 nM to 200 nM.). With `CN(C)c1cc(N[C@H]2CC[C@@H](NC(=O)c3cc(F)c(Cl)cc3Cl)CC2)nc2ccccc12` [compound 39] the class was 3 (Class 3 The value of percent of control at 10^−7 M was more than 60% or the value of IC50 was more than 200 nM.). For `CCCCCC(=O)N[C@H]1CC[C@@H](Nc2cc(N(C)C)c3ccccc3n2)CC1` [compound 40], the class was 3 (Class 3 The value of percent of control at 10^−7 M was more than 60% or the value of IC50 was more than 200 nM.). `CN(C)c1cc(N[C@H]2CC[C@@H](NC(=O)c3ccc(I)cc3)CC2)nc2ccccc12` [compound 41] was tested, and the class was 3 (Class 3 The value of percent of control at 10^−7 M was more than 60% or the value of IC50 was more than 200 nM.). `CSc1ncccc1C(=O)N[C@H]1CC[C@@H](Nc2cc(N(C)C)c3ccccc3n2)CC1` [compound 42] was tested, and the class was 3 (Class 3 The value of percent of control at 10^−7 M was more than 60% or the value of IC50 was more than 200 nM.). `Cc1ccc(C(=O)N[C@H]2CC[C@@H](Nc3cc(N(C)C)c4ccccc4n3)CC2)cc1[N+](=O)[O-]` [compound 43, N-(cis-4-{[4-(dimethylamino)quinolin-2-yl]amino}cyclohexyl)-4-methyl-3-nitrobenzamide] was tested, and the class was 2 (Class 2: The value of percent of control at 10^−7 M was from 40% to 60% or the value of IC′50 was from 50 nM to 200 nM.). For `CN(C)c1cc(N[C@H]2CC[C@@H](NC(=O)c3cccc([N+](=O)[O-])c3)CC2)nc2ccccc12` [compound 44, N-(cis-4-{[4-(dimethylamino)quinolin-2-yl]amino}cyclohexyl)-3-nitrobenzamide], the class was 1 (Class 1: The value of percent of control at 10^−7 M was less than 40% or the value of IC50 was less than 50 nM.). For `CN(C)c1cc(N[C@H]2CC[C@@H](NC(=O)Cc3ccccc3)CC2)nc2ccccc12` [compound 45, N-(cis-4-{[4-(dimethylamino)quinolin-2-yl]amino}cyclohexyl)-2-phenlacetamide], the class was 3 (Class 3 The value of percent of control at 10^−7 M was more than 60% or the value of IC50 was more than 200 nM.). `CN(C)c1cc(N[C@H]2CC[C@@H](NC(=O)C3C[C@H]3c3ccccc3)CC2)nc2ccccc12` (stereo partly shown) [compound 46] was tested, and the class was 3 (Class 3 The value of percent of control at 10^−7 M was more than 60% or the value of IC50 was more than 200 nM.). In the case of `CN(C)c1cc(N[C@H]2CC[C@@H](NC(=O)c3ccc4c(c3)OCO4)CC2)nc2ccccc12` [compound 47], the class is reported as 3 (Class 3 The value of percent of control at 10^−7 M was more than 60% or the value of IC50 was more than 200 nM.). In the case of `Cc1cccc(C(=O)N[C@H]2CC[C@@H](Nc3cc(N(C)C)c4ccccc4n3)CC2)c1` [compound 50, N-(cis-4-{[4-(dimethylamino)quinolin-2-yl]amino}cyclohexyl)-3-methylbenzamide], the class is reported as 1 (Class 1: The value of percent of control at 10^−7 M was less than 40% or the value of IC50 was less than 50 nM.). For `Cc1ccc(C(=O)N[C@H]2CC[C@@H](Nc3cc(N(C)C)c4ccccc4n3)CC2)cc1` [compound 51], the class was 3 (Class 3 The value of percent of control at 10^−7 M was more than 60% or the value of IC50 was more than 200 nM.). `CN(C)c1cc(N[C@H]2CC[C@@H](NC(=O)c3cccs3)CC2)nc2ccccc12` [compound 52] was tested, and the class was 3 (Class 3 The value of percent of control at 10^−7 M was more than 60% or the value of IC50 was more than 200 nM.). With `CN(C)c1cc(N[C@H]2CC[C@@H](NC(=O)Cc3cccs3)CC2)nc2ccccc12` [compound 53] the class was 3 (Class 3 The value of percent of control at 10^−7 M was more than 60% or the value of IC50 was more than 200 nM.). For `CN(C)c1cc(N[C@H]2CC[C@@H](NC(=O)c3cccc(OC(F)(F)F)c3)CC2)nc2ccccc12` [compound 54, N-(cis-4-{[4-(dimethylamino)quinolin-2-yl]amino}cyclohexyl)-3-(trifluoromethoxy)benzamide], the class was 2 (Class 2: The value of percent of control at 10^−7 M was from 40% to 60% or the value of IC′50 was from 50 nM to 200 nM.). `CN(C)c1cc(N[C@H]2CC[C@@H](NC(=O)OCc3ccccc3)CC2)nc2ccccc12` [compound 55] was tested, and the class was 3 (Class 3 The value of percent of control at 10^−7 M was more than 60% or the value of IC50 was more than 200 nM.). In the case of `CN(C)c1cc(N[C@H]2CC[C@@H](NC(=O)OCc3ccc([N+](=O)[O-])cc3)CC2)nc2ccccc12` [compound 56], the class is reported as 3 (Class 3 The value of percent of control at 10^−7 M was more than 60% or the value of IC50 was more than 200 nM.). `Cc1cc(C(=O)N[C@H]2CC[C@@H](Nc3cc(N(C)C)c4ccccc4n3)CC2)ccc1Br` [compound 57, 4-bromo-N-(cis-4-{[4-(dimethylamino)quinolin-2-yl]amino}cyclohexyl)-3-methylbenzamide] was tested, and the class was 1 (Class 1: The value of percent of control at 10^−7 M was less than 40% or the value of IC50 was less than 50 nM.). `CN(C)c1cc(N[C@H]2CC[C@@H](NC(=O)c3cccc(I)c3)CC2)nc2ccccc12` [compound 58, N-(cis-4-{[4-(dimethylamino)quinolin-2-yl]amino}cyclohexyl)-3-iodobenzamide] was tested, and the class was 2 (Class 2: The value of percent of control at 10^−7 M was from 40% to 60% or the value of IC′50 was from 50 nM to 200 nM.). In the case of `CN(C)c1cc(N[C@H]2CC[C@@H](NC(=O)c3cccc(Cl)c3F)CC2)nc2ccccc12` [compound 59], the class is reported as 3 (Class 3 The value of percent of control at 10^−7 M was more than 60% or the value of IC50 was more than 200 nM.).
